Test results published in PMC9112336 (ACS infectious diseases, 2022).

Legend:
Format in all cases: cell-based
[1] = tested on: mCherry-LAMP1 expressing HEK293 cells
[2] = tested on: GFP-Rab5 expressing HEK293 cells
[3] = tested on: mCherry-LAMP1 expressing HEK293 cells; remark: listed apart in the source
[4] = tested on: mCherry-LAMP1 expressing HEK293 cells; remark: listed apart in the source
[5] = tested on: vesicular acidification in HEK293 cells
[6] = tested on: endocytic vesicle pH in HEK293 cells

Cc1cccc(/C=N/Nc2cc(N3CCOCC3)nc(OCCc3ccccn3)n2)c1 [Apilimod, apilimod]
effect on LAMP1+ structures compared to DMSO [1]: significantly altered LAMP1 structures

CO/C1=C\C(C)=C\[C@@H](C)[C@@H](O)[C@@H](C)C/C(C)=C/C=C/[C@H](OC)[C@@H]([C@@H](C)[C@@H](O)[C@H](C)[C@@]2(O)C[C@@H](O)[C@H](C)[C@@H](C(C)C)O2)OC1=O [bafilomycin, bafilomycin A1]
average size of Rab5+ punctate vesicles [2]: 400 nm | average number of dilated vesicles >1 μm per cell, pre-treatment before apilimod [3]: ~1 | average number of large, dilated vesicles per cell, treatment after apilimod [4]: ~1 | reversibility of inhibition of vesicular acidification [5]: full recovery of acridine orange pH-dependent shift to red was not observed | large (>1 μm) vesicle pHrodo fluorescence [6]: significant decrease

COc1cc2c(O)c3c(c(-c4ccc5c(c4)OCO5)c2cc1OC)C(=O)OC3 [1.1, diphyllin]
acidification activity after the 24 h washout period [5]: 90.2 ± 11.5% | acidification activity, initial response (immediate post washout) [5]: 57.5 ± 9.0%
